# Measured values as given in publication PMC3677933, “Identification of Class I HLA T Cell Control Epitopes for West Nile Virus” (PLoS ONE, 2013).
# pIC50: −log10 of the molar value. Ends that are not written are not given here.
# Molecular target: T1, HLA-A*11:01 (Homo sapiens, UniProt P04439, A114D/D185E/E176A/F33Y/L180Q/S129P/T187R)
# T1 construct: purchased Pure Protein L.L.C
# Assay: Fluorescence polarization competitive peptide-binding assay
# Description: Figure 1 Direct epitope discovery of WNV epitope GTL9. (A) RP-HPLC profile of HLA-A*11:01 peptides from uninfected (blue) and WNV-infected (red) cells. (B) MS ion spectra of HPLC fraction 50 from uninfected (black) and infected (red) cells. MS data were recorded for 300 scans. (C) Overlay of the MS/MS fragmentation pattern of ion 466.7 in the infected HPLC fraction 50 (identified as the GTL9 peptide; red) with the MS/MS fragmentation pattern for the GTL9 synthetic peptide (black). (D) Florescence polarization competitive binding assay with the GTL9 synthetic peptide and HLA-A*11:01.
# These six WNV peptides fit the reported A*11:01-binding motif. […] The fluorescence polarization assay used to assess A*11:01 binding categorizes peptides with IC50 values <5,000 nM as high affinity. In summary, six WNV ligands were discovered by direct elution from A*11:01, these ligands were sequenced by tandem MS, their sequence was confirmed with synthetic ligands, they bound well to A*11:01, they were of traditional length, and these ligands were consistent with the previously reported A*11:01 motif.
# MS ion maps were generated for HPLC fractions containing peptides. Fractions were ionized by using nanoelectrospray capillaries (Proxeon) into a QSTAR elite (Applied Biosystems) electrospray quadrupole time-of-flight mass spectrometer. Peptide sequences were determined manually by using the MASCOT software package (Matrix Science). Peptide binding to HLA-A*11:01 was determined using the florescence polarization method (Pure Protein L.L.C.).
row,Substance,pIC50
1,KSYETEYPK [KSY9],5.10
2,AVVVNPSVK [AVV9],5.65
3,GTLTSAINR [GTL9],5.95
4,KNMEKPGLK [KNM9],4.61
5,AIIEVDRSAAK [AII11],4.95
6,RVLSLIGLK [RVL9],6.48

# Molecular target: HLA-A*11:01 (fluorescence polarisation peptide-binding assay)
# Assay: fluorescence polarisation; competitive binding assay of synthetic peptide with HLA-A*11:01 (Pure Protein L.L.C. method, ref. 45); IC50 <5,000 nM categorised as high affinity
row,Substance,pIC50
1,GTL9 synthetic peptide (WNV capsid 89-97),5.95
2,KNM9 synthetic peptide (WNV NS4B 2519-2527),4.61
3,KSY9 synthetic peptide (WNV NS3 1894-1902),5.10
4,AII11 synthetic peptide (WNV NS5 2559-2569),4.95
5,AVV9 synthetic peptide (WNV NS4B 2458-2466),5.65
6,RVL9 synthetic peptide (WNV capsid 23-31),6.48
